# Entries after “also recorded” stand apart in the source; their conditions may differ. Marks after values point to notes of the source that are not given here.
# Columns and labels:
# [1] = molecular target: T1, Ube1 (Homo sapiens, UniProt P22314); assay: ATP-PPi exchange assay of Ube1 activation; type: biochemical; conditions: for Km / kcat / kcat/Km: ATP-PPi exchange catalyzed by Ube1, 0.05 uM Ube1, peptides 10-1000 uM, n=3; for Km: 50 mM Tris-Cl pH7.5, 10 mM MgCl2, 1 mM ATP, 1 mM [32P]pyrophosphate, room temperature; for Km / kcat: Michaelis-Menten fit; for kcat / kcat/Km: pH7.5, room temperature; for reactivity of free 7mer peptides with Ube1 (ATP-PPi exchange rate): free short peptides, Figure 1, n=3
# T1 sequence (P22314 1-1058): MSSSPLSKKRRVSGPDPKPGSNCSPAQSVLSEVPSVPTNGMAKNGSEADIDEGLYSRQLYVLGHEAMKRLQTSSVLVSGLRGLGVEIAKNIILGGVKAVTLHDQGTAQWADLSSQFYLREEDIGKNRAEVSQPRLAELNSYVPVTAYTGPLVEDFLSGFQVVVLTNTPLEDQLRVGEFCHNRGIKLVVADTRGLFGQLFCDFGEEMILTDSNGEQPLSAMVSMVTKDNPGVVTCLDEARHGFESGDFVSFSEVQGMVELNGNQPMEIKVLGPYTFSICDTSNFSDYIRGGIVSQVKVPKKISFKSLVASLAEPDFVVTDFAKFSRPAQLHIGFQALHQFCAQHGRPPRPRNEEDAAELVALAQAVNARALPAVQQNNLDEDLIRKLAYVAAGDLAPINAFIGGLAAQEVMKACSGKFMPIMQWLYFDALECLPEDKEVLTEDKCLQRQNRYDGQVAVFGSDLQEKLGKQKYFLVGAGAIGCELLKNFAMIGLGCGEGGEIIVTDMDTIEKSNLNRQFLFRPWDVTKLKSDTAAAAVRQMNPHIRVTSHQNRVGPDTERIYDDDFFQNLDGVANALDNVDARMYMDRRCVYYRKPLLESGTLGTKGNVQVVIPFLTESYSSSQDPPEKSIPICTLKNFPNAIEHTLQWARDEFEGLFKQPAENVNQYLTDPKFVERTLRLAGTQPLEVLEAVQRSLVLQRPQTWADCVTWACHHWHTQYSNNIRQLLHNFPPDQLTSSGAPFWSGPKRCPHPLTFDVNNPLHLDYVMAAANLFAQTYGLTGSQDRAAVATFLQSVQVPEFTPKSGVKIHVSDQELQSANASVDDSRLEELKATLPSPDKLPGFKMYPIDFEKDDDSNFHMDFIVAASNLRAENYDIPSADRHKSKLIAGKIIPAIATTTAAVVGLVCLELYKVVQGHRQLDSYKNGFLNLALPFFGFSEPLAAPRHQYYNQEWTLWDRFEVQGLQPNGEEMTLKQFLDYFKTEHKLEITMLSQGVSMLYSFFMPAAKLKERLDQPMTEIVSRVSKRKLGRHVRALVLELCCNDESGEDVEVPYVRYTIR
# Protocol: Initial velocity of Ube1-activated peptides either in the free state or on different frames was followed by the ATP-PPi exchange assay. 50 uL reactions were set up containing varying concentrations of peptides, 0.05 uM Ube1, 50 mM Tris-Cl, pH7.5, 10 mM MgCl2, and 1 mM ATP. The reactions were initiated by adding of 1 mM [^32P]pyrophosphate (4.6 Ci/mol). The reactions were incubated at room temperature and quenched at various time points by adding of 0.5 mL of a suspension of activated charcoal (1.6 % (w/v) charcoal, 0.1 M tetrasodium pyrophosphate, and 0.35 M perchloric acid) to each of the reactions. The charcoal was pelleted by centrifugation and each charcoal pellet was washed three times with 1 ml 2 % trichloroacetic acid. Finally the charcoal pellet was resuspended in 0.5 ml water and the suspension was added to 3.5 mL Ultima Gold LSC-cocktail (PerkinElmer). The radioactivity bound to charcoal was determined by liquid scintillation counting. To measure the kinetics of the peptides activation by Ube1, initial velocities of ATP-PPi exchange were determined with concentrations of peptides varying from 10 uM to 1000 uM. The kinetic data were fitted to the Michaelis-Menten equation with the data analysis software Origin.
# [2] = test system: E2 and E3; conditions: cited from earlier work
substance,measurement,setting,value
"AGRMLGG [C7, heptamer peptide AGRMLGG from Ubiquitin-like protein fubi and ribosomal protein S30 precursor]",Km,[1],543 ± 122 µM
same,kcat,[1],5.54±1.37^c min^−1
same,kcat/Km,[1],1.01 x10^−2^c μM min^−1
same,reactivity of free 7mer peptides with Ube1 (ATP-PPi exchange rate),[1],displayed affinity with Ube1 with a similar level of efficiency as P3 and P4; also recorded: highest activity of the three peptides identified in this study
"ALKERGG [C3, heptamer peptide ALKERGG from Human splicing factor 3A subunit 1 isoform 1]",reactivity of free 7mer peptides with Ube1 (ATP-PPi exchange rate),[1],"neither C8, containing Arg but only one Gly, nor C3, which possesses the C-terminal Gly-Gly but with a homologous replacement of Arg to Lys, showed any reactivity toward Ube1"
"EPRLCGG [C1, heptamer peptide EPRLCGG from the motif of Human C1orf55]",Km,[1],651 ± 49.3 µM
same,kcat,[1],2.29±0.59^a min^−1
same,kcat/Km,[1],3.52 x10^−3^a μM min^−1
same,reactivity of free 7mer peptides with Ube1 (ATP-PPi exchange rate),[1],displayed affinity with Ube1 with a similar level of efficiency as P3 and P4
"IPRDRVG [C8, heptamer peptide IPRDRVG from Ubiquitin-fold modifier 1 (Homo sapiens)]",reactivity of free 7mer peptides with Ube1 (ATP-PPi exchange rate),[1],"neither C8, containing Arg but only one Gly, nor C3, which possesses the C-terminal Gly-Gly but with a homologous replacement of Arg to Lys, showed any reactivity toward Ube1"
"VLRLRGG [P1, reference compound]",kcat/Km,[1],5.24e-05 µM/min
same,reactivity of free 7mer peptides with Ube1 (ATP-PPi exchange rate),[1],could not be conjugated to Ube1
"VLRQLGG [C2, heptamer peptide VLRQLGG from Drosophila homologue of C1orf55]",Km,[1],611 ± 23.1 µM
same,kcat,[1],3.73±0.87^b min^−1
same,kcat/Km,[1],6.10 x10^−3^b μM min^−1
same,reactivity of free 7mer peptides with Ube1 (ATP-PPi exchange rate),[1],displayed affinity with Ube1 with a similar level of efficiency as P3 and P4
"VQRYWGG [P3, previously reported short peptide VQRYWGG, positive control, reference compound]",Km,[1],476 ± 163 µM
same,kcat,[1],6.68 ± 0.77 min⁻¹
same,kcat/Km,[1],0.014 µM/min
same,reactivity of free 7mer peptides with Ube1 (ATP-PPi exchange rate),[1],showed significant activity with Ube1
same,transfer of free peptides to E2 and E3,[2],could be transferred to E2 and E3
"VYRFYGG [P4, previously reported short peptide VYRFYGG, positive control, reference compound]",Km,[1],251 ± 55.6 µM
same,kcat,[1],13.98 ± 2.08 min⁻¹
same,kcat/Km,[1],0.0557 µM/min
same,reactivity of free 7mer peptides with Ube1 (ATP-PPi exchange rate),[1],showed significant activity with Ube1
same,transfer of free peptides to E2 and E3,[2],could be transferred to E2 and E3

# From publication PMC6136576, “Ubiquitin-Mimicking Peptides Transfer Differentiates by E1 and E2 Enzymes” (BioMed Research International, 2018)
